We go through 2 compounds from US10092599B2, “Methods for enhancing hematopoietic stem/progenitor cell engraftment” (CHILDREN'S MEDICAL CENTER CORPORATION, priority 2009, dated 2018).

This experiment concerns hematopoietic stem/progenitor cell engraftment. As to the kind of experiment: adult zebrafish whole kidney marrow competitive transplantation assay. In kind it is in vivo. Conditions: for engraftment signal in pilot screen of 10 bioactive compounds: by four weeks post-transplant, 10 recipients per treatment; for average G/R / percentage of positive recipients: green marrow incubated in vitro 4 hrs, mixed with red marrow 1:4, 4 wpt, compared with DMSO control; for engraftment: by 4 weeks post transplant. The source says: A transparent adult zebrafish, casper, was used as a transplantation recipient. Casper is a double homozygous pigment mutant for the nacre allele (devoid of melanocytes) and the roy allele (devoid of iridophores and reduced melanoyctyes), which allows direct visualization of GFP labeled hematopoietic stem cell homing and engraftment without killing the recipients. Two marrows are used: Tg(β-actin:GFP) and Red GloFish® respectively to compete with each other at varying ratios e.g., 1:4, which can generate robust competition between the two donors. In one embodiment, the red marrow is the competitor, as well as an internal control for the transplant. At different timepoints post-transplant, the recipients are anesthetized and two pictures for each recipient are taken by a fluorescence stereomicroscope with GFP/DsRed filters individually. Images are analyzed by software, such as ImageJ, which can quantify the GFP/DsRed fluorescence intensity. The relative engraftment efficiency of the manipulated green marrow is measured by the ratio of the GFP intensity over the DsRed intensity within the same kidney region after background subtraction (labeled as G/R).
A double-color labeled competitive transplantation assay was developed, as shown by the flow chart in FIG. 1A. GFP+ and DsRed2+ marrow cells are isolated from Tg(β-actin:GFP) and commercially available Red GloFish®. The two donor populations are mixed at a certain ratio and injected into sublethally irradiated casper recipients retro-orbitally. The DsRed2+ marrow is used as the competitor. Four weeks later, the engraftment is visualized by fluorescence dissection scope. Pictures of GFP and DsRed engraftment are taken for each recipient and analyzed by ImageJ. The kidney region is manually selected and the average fluorescence intensities of both green and red are measured within the same region. The average background intensity is measured in a region outside the fish, and subtracted from the kidney intensity. The calculation of the relative engraftment is shown by the equation in FIG. 1B.
Adult zebrafish donors are anaesthetized with 0.2% tricaine before blood and kidney collection. Peripheral blood is obtained from adult casper by cardiac puncture with micropipette tips coated with heparin and collected into 0.9×PBS containing 5% FCS. About 3-5 million red blood cells are harvested from one donor. To dissect whole kidney marrow (WKM), a ventral midline incision is made on the donor fish. Whole kidney is dissected out and placed into ice-cold 0.9×PBS containing 5% FCS. Single-cell suspensions are generated by aspiration followed by filtering through a […] nylon mesh filter into a 50 ml conical tube. The flow-though part is diluted with a final volume of 25 ml and centrifuged at 1,500 rpm for 8 minutes. The supernatant is discarded and the pellet cells are resuspended in 1 ml 0.9×PBS containing 5% FCS. The number of viable cells are counted with a hemocytometer. […] Finally, the peripheral blood and kidney marrow cells are centrifuged at 1,500 rpm for 8 minutes, resuspended in 0.9×PBS containing 5% FCS and mixed at a certain ratio and concentration. Casper recipients are anesthetized in tricaine. 4 μl of the cell suspension mixture described above is injected into the circulation retro-orbitally through a Hamilton syringe (26s gauge, 10 μl volume). […] Transplanted recipients can be anesthetized in tricaine and visualized over time on a Zeiss Discovery V8 stereomicroscope with a 1.2× PlanApo lens and GFP/DsRed filters. Images are captured using AxioVision software and for each recipient, two images are taken with GFP or DsRed filter respectively. The images are all saved in .tif format and analyzed using ImageJ software.

Regarding `O=C1Nc2cc(Br)ccc2C1=C1Nc2ccccc2C1=NO` [BIO, 6-bromorindirubin-3′-oxime], the “engraftment signal in pilot screen of 10 bioactive compounds” value is reported as “enhanced signal above the rest of the chemicals tested”, the “average G/R” value was “significantly increased” and the “percentage of positive recipients” value was “significantly increased”. Moreover, for the setting “at 3 months”, the “score in the competitive transplant model” value (“score” for short) is “positive”. Besides, under “at 4 weeks”, the “score” value is “positive”. The engraftment entry (green marrow incubated in vitro with 0.5 μM at room temperature for 2-4 hours) was “increase engraftment”.

Take `CCCCC(C)(C)[C@H](O)/C=C/[C@H]1[C@H](O)CC(=O)[C@@H]1C/C=C\CCCC(=O)O` [dmPGE2, 16-,16-dimethyl Prostaglandin E2]: the “engraftment signal in pilot screen of 10 bioactive compounds” value was “enhanced signal above the rest of the chemicals tested”, the “average G/R” value is given as “significantly increased” and the “percentage of positive recipients” value is “significantly increased”. Moreover, the “score” value (at 3 months) was “positive”. For the same compound, the “score” value (at 4 weeks) is listed as “positive”. Further, under “green marrow incubated in vitro with 10 μM at room temperature for 2-4 hours”, the engraftment result is “increase engraftment”.
